Reference: ChEMBL document CHEMBL1132638, “New (sulfonyloxy)piperazinyldibenzazepines as potential atypical antipsychotics: chemistry and pharmacological evaluation” (J Med Chem, 1999)
pIC50: −log10 of the molar value.

Key:
[1] = target: T1, Adrenergic receptor alpha-1 (Rattus norvegicus, UniProt P15823+P23944+P43140); assay: In vitro binding affinity towards Alpha-1 adrenergic receptor by the displacement of [3H]prazosin radioligand in rat cortical homogenates
T1 sequence (P15823 whole entry): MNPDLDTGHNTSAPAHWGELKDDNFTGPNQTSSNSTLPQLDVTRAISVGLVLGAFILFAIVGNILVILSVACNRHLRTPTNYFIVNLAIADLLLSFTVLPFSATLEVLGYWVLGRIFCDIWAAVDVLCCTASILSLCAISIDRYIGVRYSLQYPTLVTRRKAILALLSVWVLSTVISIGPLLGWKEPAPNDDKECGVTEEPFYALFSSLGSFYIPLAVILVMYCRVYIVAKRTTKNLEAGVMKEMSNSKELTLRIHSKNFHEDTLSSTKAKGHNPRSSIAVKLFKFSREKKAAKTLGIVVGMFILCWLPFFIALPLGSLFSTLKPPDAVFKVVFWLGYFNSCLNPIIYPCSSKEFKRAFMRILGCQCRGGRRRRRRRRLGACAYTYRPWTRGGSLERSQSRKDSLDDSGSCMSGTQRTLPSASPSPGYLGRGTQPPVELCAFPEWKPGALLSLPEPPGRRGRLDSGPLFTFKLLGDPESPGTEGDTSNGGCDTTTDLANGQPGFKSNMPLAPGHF
T1 sequence (P23944 whole entry): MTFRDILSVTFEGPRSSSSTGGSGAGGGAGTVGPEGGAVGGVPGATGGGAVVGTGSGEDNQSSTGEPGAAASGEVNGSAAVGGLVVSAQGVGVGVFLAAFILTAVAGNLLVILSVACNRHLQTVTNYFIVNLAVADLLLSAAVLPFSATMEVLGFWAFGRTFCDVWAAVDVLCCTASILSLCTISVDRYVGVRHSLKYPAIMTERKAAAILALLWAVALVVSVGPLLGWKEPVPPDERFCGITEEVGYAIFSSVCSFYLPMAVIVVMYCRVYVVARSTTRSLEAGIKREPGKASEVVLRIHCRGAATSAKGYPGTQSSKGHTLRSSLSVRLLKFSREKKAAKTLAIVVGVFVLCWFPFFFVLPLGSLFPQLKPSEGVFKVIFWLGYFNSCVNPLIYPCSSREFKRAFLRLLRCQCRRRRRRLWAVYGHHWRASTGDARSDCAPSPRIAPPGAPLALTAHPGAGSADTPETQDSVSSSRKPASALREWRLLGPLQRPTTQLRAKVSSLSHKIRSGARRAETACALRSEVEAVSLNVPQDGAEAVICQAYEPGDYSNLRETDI
T1 sequence (P43140 whole entry): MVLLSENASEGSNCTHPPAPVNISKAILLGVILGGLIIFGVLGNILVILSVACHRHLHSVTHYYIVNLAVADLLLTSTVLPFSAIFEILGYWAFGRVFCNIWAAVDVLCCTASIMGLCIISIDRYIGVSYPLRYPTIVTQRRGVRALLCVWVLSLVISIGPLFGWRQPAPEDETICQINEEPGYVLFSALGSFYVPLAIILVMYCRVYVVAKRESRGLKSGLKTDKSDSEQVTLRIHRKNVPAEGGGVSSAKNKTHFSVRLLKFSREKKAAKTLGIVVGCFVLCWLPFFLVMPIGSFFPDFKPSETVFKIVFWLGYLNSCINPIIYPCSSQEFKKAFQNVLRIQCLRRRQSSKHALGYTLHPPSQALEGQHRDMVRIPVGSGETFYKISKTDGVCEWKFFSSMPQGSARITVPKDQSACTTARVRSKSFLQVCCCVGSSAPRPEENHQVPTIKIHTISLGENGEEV

D(4) dopamine receptor [2] = target: T2, D(4) dopamine receptor (Homo sapiens, UniProt P21917); assay: Compound was tested in vitro for its binding affinity towards human Dopamine receptor D4.2
T2 sequence (P21917 whole entry): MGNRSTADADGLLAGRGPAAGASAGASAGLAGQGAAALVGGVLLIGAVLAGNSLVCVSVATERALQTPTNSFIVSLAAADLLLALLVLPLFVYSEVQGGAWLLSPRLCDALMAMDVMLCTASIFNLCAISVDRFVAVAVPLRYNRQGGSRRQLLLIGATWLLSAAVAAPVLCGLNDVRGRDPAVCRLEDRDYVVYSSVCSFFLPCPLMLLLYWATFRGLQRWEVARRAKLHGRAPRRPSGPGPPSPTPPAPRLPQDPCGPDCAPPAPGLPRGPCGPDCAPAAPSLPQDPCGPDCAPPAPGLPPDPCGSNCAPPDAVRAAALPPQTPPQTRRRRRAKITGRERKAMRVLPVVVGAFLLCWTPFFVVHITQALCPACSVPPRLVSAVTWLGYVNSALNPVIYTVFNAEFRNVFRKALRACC

Mus musculus [3] = assay: Inhibition of apomorphine induced climbing affects in mice by administering the compound perorally in mice; assay type: functional
[4] = target: T3, Muscarinic acetylcholine receptor M1 (Homo sapiens, UniProt P11229); assay: Inhibition of binding of 1.0 nM [3H]pirenzepine to cloned human Muscarinic acetylcholine receptor M1 expressed in membranes from CHO-K1 cells; assay type: cell-based
T3 sequence (P11229 whole entry): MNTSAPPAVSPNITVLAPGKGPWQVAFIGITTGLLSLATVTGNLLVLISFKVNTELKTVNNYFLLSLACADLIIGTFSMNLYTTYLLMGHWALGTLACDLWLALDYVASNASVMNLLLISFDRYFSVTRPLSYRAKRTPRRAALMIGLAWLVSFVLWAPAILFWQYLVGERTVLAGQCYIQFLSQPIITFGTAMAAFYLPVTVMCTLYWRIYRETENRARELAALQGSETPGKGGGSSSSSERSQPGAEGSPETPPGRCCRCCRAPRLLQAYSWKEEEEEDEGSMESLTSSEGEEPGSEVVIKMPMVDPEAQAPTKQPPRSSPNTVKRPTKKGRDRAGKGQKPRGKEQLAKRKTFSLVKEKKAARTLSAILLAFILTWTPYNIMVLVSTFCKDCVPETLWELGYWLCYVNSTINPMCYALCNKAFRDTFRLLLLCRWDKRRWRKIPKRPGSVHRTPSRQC

Rattus norvegicus [5] = assay: Compound is measured for inhibition of catalepsy in rats by peroral administration of compound; assay type: functional; conditions: po
Rattus norvegicus [6] = assay: Compound is measured for inhibition of catalepsy in rats by subcutaneous administration of compound; assay type: functional; conditions: sc
D(3) dopamine receptor = D(3) dopamine receptor (Homo sapiens, UniProt P35462)
Sequence of D(3) dopamine receptor (P35462 whole entry): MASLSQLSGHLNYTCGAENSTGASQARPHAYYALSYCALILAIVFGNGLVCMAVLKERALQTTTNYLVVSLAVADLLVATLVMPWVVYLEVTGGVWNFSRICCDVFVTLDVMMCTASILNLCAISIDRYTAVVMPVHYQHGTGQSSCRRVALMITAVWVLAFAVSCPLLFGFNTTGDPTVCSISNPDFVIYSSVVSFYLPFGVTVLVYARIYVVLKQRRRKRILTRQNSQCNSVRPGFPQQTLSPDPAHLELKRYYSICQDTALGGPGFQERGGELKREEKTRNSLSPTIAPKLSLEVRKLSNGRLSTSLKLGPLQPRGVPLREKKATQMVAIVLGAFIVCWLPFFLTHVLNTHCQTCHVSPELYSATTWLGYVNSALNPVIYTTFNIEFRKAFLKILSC
Description: Binding affinity towards human Dopamine receptor D3

[7] = Partition coefficient (logP); assay type: physicochemical; conditions: octanol/water
Mus musculus [8] = assay: Inhibition of apomorphine induced climbing affects in mice by administering the compound subcutaneously in mice; assay type: functional; conditions: sc
Rattus norvegicus [9] = assay: Compound is measured for inhibition of catalepsy in rat by peroral administration of compound; assay type: functional; conditions: po
Rattus norvegicus [10] = assay: Inhibition of catalepsy in rat by subcutaneous administration of compound; assay type: functional; conditions: sc
Rattus norvegicus [11] = species: Rattus norvegicus; assay: Ex vivo accumulation of L-DOPA was measured in striatum of rats
[12] = target: T1, Adrenergic receptor alpha-1; assay: Binding affinity towards alpha-1 adrenergic receptor from rat brain membranes using [3H]prazosin as radioligand
D(4) dopamine receptor [13] = target: T2, D(4) dopamine receptor; assay: Binding affinity towards human D4.2 receptor
Histamine H1 receptor = Histamine H1 receptor (Rattus norvegicus, UniProt P31390); assay: Binding affinity towards histamine H1 receptor from rat brain membranes using [3H]mepyramine as radioligand
Sequence of Histamine H1 receptor (P31390 whole entry): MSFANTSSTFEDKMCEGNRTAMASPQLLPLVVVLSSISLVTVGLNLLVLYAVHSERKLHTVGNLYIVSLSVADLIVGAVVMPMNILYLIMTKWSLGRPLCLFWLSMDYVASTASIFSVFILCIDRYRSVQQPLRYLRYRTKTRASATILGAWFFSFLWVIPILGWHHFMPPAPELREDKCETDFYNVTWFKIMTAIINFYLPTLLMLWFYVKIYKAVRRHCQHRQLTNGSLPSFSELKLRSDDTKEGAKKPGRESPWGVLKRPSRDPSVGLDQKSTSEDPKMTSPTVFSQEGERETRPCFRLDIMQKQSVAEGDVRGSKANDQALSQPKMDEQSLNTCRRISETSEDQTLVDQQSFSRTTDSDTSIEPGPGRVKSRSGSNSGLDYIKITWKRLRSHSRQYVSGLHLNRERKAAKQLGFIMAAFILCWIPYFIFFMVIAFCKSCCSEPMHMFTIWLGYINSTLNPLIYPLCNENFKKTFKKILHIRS

[14] = Therapeutic ratio by Peroral dose of administration (quotient ED50 catalepsy/ED50 climbing); assay type: ADME, organism-based; conditions: in vivo, po; read-out: Therapeutic ratio
[15] = Delta ED50 value by peroral administration (ED50 catalepsy-ED50 Climbing); assay type: functional
[16] = target: T4, 5-hydroxytryptamine receptor 2C (Rattus norvegicus, UniProt P08909)
T4 sequence (P08909 whole entry): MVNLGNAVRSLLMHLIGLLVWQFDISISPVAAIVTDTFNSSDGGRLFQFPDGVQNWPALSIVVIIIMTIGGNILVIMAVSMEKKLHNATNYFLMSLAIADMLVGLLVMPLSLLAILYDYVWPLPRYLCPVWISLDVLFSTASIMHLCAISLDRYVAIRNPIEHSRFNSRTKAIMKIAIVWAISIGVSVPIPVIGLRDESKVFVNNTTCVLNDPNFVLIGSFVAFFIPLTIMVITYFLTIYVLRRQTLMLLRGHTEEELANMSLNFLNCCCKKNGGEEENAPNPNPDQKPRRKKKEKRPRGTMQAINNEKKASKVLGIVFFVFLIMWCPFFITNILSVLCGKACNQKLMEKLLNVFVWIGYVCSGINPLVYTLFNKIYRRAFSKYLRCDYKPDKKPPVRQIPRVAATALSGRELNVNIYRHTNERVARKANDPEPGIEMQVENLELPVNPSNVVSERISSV
Description: Binding affinity towards 5-HT2C receptor from rat using [3H]mesulergine as radioligand

[17] = target: 5-hydroxytryptamine receptor 2A (Rattus norvegicus, UniProt P14842); assay: biochemical
Sequence of 5-hydroxytryptamine receptor 2A (P14842 whole entry): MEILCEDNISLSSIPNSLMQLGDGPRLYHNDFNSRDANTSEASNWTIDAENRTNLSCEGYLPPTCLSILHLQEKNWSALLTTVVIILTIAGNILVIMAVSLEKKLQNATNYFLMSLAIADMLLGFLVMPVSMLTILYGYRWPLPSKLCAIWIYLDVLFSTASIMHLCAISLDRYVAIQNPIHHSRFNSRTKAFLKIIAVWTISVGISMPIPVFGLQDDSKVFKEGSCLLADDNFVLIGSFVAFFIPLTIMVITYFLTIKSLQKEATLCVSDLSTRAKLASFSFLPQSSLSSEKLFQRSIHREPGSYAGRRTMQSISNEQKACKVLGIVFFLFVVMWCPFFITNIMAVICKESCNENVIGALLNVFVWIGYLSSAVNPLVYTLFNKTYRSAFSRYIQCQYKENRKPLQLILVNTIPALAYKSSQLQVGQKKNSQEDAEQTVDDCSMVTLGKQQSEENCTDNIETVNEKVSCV
Description: Binding affinity towards 5-hydroxytryptamine 2A receptor from rat frontal cortex using [3H]ketanserin as radioligand

D(1A) dopamine receptor = D(1A) dopamine receptor (Rattus norvegicus, UniProt P18901); assay: biochemical
Sequence of D(1A) dopamine receptor (P18901 whole entry): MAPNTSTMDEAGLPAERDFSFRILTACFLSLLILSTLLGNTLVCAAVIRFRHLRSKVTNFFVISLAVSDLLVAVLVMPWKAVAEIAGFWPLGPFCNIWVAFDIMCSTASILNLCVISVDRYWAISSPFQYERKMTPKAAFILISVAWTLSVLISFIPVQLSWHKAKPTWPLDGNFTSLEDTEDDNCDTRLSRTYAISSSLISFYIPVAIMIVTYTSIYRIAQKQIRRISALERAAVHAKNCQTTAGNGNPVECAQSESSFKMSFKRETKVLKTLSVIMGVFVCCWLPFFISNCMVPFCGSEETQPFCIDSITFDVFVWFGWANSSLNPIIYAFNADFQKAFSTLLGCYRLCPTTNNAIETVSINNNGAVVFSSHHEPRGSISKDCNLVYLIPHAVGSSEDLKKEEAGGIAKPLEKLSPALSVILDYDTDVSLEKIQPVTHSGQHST
Description: Binding affinity towards D1 CNS receptor of rat corpus striatum using [3H]SCH-23390 as radioligand

Rattus norvegicus [18] = assay: Catalepsy percent score in rat by peroral administration of 100 mg/Kg of compound
[19] = Delta ED50 value by Subcutaneous administration (ED50 catalepsy-ED50 Climbing); assay type: functional
in vivo = conditions: sc
Description: Therapeutic ratio by Subcutaneous dose of administration (quotient ED50 catalepsy/ED50 climbing)

D(2) dopamine receptor = D(2) dopamine receptor (Homo sapiens, UniProt P14416); assay: Compound was tested in vitro for its binding affinity towards human Dopamine receptor D2
Sequence of D(2) dopamine receptor (P14416 whole entry): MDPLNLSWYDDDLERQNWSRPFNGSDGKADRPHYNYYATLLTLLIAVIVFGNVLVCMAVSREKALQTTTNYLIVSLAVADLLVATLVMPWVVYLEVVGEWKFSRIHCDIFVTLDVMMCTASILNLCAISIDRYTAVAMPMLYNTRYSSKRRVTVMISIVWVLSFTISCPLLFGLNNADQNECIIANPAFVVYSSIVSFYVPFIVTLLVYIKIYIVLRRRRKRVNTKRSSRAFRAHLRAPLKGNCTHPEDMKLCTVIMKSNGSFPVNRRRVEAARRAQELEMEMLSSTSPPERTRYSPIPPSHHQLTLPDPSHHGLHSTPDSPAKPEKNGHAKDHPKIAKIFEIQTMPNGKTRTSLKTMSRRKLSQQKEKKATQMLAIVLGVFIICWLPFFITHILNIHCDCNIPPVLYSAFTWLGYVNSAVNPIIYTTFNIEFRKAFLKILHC

[20] = Mus musculus, po, read-out: ED50

Compound | ED50 (Mus musculus [3]; [20]) [mg/kg] | pIC50 [4] | pIC50 (D(3) dopamine receptor) | logP [7] | ED50 (Mus musculus [8]) [mg/kg] | ED50 (Rattus norvegicus [9]) [mg/kg] | ED50 (Rattus norvegicus [10]) [mg/kg] | ED50 (Rattus norvegicus [11]) [mg/kg] | pIC50 [17] | also measured
CN1CCN(C2=Nc3ccccc3Oc3ccc(Cl)cc32)CC1 [LOXAPINE] | 0.04 | 5.26 | 7.66 |  |  |  |  |  |  | IC50 [1]: 18 nM; pIC50 (D(4) dopamine receptor [2]): 7.85; ED50 (Mus musculus [3]): 0.04 mg/kg; ED50 (Rattus norvegicus [5]): < 1 mg/kg; ED50 (Rattus norvegicus [6]): 0.35 mg/kg
CN1CCN(C2=Nc3cc(Cl)ccc3Nc3ccccc32)CC1 [CLOZAPINE] | 17 |  |  | 3.48 | 5.6 | > 100 | > 32.6 | 17 |  | 
COc1ccc2c(c1)C(N1CCN(C)CC1)=Nc1ccccc1N2 |  |  |  | 2.71 |  |  |  |  |  | 
COc1ccc2c(c1)N=C(N1CCN(C)CC1)c1ccccc1N2 |  |  |  | 2.71 |  |  |  |  |  | 
CN1CCN(C2=Nc3ccccc3Oc3ccc(OS(=O)(=O)C(F)(F)F)cc32)CC1 | 1.3 | 6.31 | 7.54 | 3.76 | 2.2 | 28 |  | 0.7 | 7.32 | IC50 [12]: 27 nM; pIC50 (D(4) dopamine receptor [13]): 6.82; pIC50 (Histamine H1 receptor): 6.92; selectivity ratio [14]: 21.5; Delta ED50 [15]: 26.7 mg/kg; pIC50 [16]: 7.00; pIC50 (D(1A) dopamine receptor): 7.18; Catalepsy (Rattus norvegicus [18]): 32%
CN1CCN(C2=Nc3ccccc3Nc3ccc(O)cc32)CC1 |  |  |  | 2.21 |  |  |  |  |  | 
O=C(CCCN1CCC(O)(c2ccc(Cl)cc2)CC1)c1ccc(F)cc1 [HALOPERIDOL] |  |  |  | 3.98 | 0.1 | 1.5 | 0.25 | 0.1 |  | 
CN1CCN(C2=Nc3cc(Cl)ccc3Nc3ccc(OS(=O)(=O)C(F)(F)F)cc32)CC1 |  | 7.27 | 7.28 | 4.3 | 8.2 |  | > 50 |  | 7.64 | IC50 [12]: 7.1 nM; pIC50 (D(4) dopamine receptor [13]): 6.31; Delta ED50 [19]: >41.8 mg/kg; pIC50 [16]: 7.89; selectivity ratio (in vivo): > 6.1; pIC50 (D(1A) dopamine receptor): 6.70
CN1CCN(C2=Nc3ccccc3Oc3ccc(OS(C)(=O)=O)cc32)CC1 |  |  | 6.46 | 1.98 |  |  |  |  | 6.64 | pIC50 (D(4) dopamine receptor [2]): < 6.00; pIC50 (D(2) dopamine receptor): < 6.00
